Laboratory results from ChEMBL document CHEMBL1127777, “Indolocarbazole nitrogens linked by three-atom bridges: a potent new class of PKC inhibitors” (Bioorg Med Chem Lett, 1994).

molecular target: Protein kinase C (PKC); test: In vitro inhibition of protein kinase C from rat brain.

IC50 | SMILES
90 nM | O=C1NC(=O)c2c1c1c3ccccc3n3c1c1c2c2ccccc2n1CN(O)C3
24 nM | NC1=NC(=O)c2c1c1c3ccccc3n3c1c1c2c2ccccc2n1CSC3
7 nM | O=C1NCc2c1c1c3ccccc3n3c1c1c2c2ccccc2n1CSC3
5 nM | O=C1NCc2c1c1c3ccccc3n3c1c1c2c2ccccc2n1CS(=O)(=O)C3
17 nM | O=C1NC(=O)c2c1c1c3ccccc3n3c1c1c2c2ccccc2n1CN(CCO)C3
19 nM | O=C1NC(=O)c2c1c1c3ccccc3n3c1c1c2c2ccccc2n1C[S+]([O-])C3
2.4 nM | CC1n2c3ccccc3c3c4c(c5c6ccccc6n(c5c32)C(C)S1(=O)=O)C(=O)NC4=O (stereo in doubt)
11 nM | O=C1NC(=O)c2c1c1c3ccccc3n3c1c1c2c2ccccc2n1COC3
14 nM | O=C1NC(=O)c2c1c1c3ccccc3n3c1c1c2c2ccccc2n1CSC3
10 nM | O=C1NC(=O)c2c1c1c3ccccc3n3c1c1c2c2ccccc2n1CN(C(CO)CO)C3
20 nM | O=C1NC(=O)c2c1c1c3ccccc3n3c1c1c2c2ccccc2n1C1COCC3S1(=O)=O
24 nM | NC1=NC(=O)c2c1c1c3ccccc3n3c1c1c2c2ccccc2n1COC3
120 nM | CC1n2c3ccccc3c3c4c(c5c6ccccc6n(c5c32)C(C)S1(=O)=O)C(=O)NC4=O (stereo in doubt; 16 (dl))
15 nM | O=C1NCc2c1c1c3ccccc3n3c1c1c2c2ccccc2n1CN(CCO)C3
2 nM | O=C1NC(=O)c2c1c1c3ccccc3n3c1c1c2c2ccccc2n1CS(=O)(=O)C3
86 nM | CN1Cn2c3ccccc3c3c4c(c5c6ccccc6n(c5c32)C1)C(=O)NC4=O
145 nM | O=C1NC(=O)c2c1c1c3ccccc3n3c1c1c2c2ccccc2n1CNC3
20 nM | CCOC(=O)C1n2c3ccccc3c3c4c(c5c6ccccc6n(c5c32)CS1(=O)=O)C(=O)NC4=O (stereo not drawn)
